Consider three compounds from patent US20080085889A1, “Amidomethyl-Substituted 1-(Carboxyalkyl) Cyclopentyl-Carbonylamino-Benzazepine-N-Acetic Acid Compounds, Process and Intermediate Products for Their Preparation and Pharmaceutical Compositions Containing Them” (SOLVAY PHARMACEUTICALS GmbH, priority 2003, published 2008).

In data set [1] the target is T1, soluble, human recombinant NEP (Homo sapiens, UniProt P08473).
T1 construct: soluble, human recombinant NEP; purchased Prof; Crine, University of Montreal, Canada
The experiment in a line: In-vitro investigation of the NEP inhibitory action (fluorescence-quenched Big-ET-1 analogue, HPLC). Format: biochemical. In a few lines:
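Enzyme preincubated with test substance 15 min at 37° C, then incubated with fluorescence-quenched Mca peptide substrate 60 min at 37° C and stopped by heating to 95° C. Cleaved and intact peptide separated by reversed-phase HPLC; unquenched Mca peak area (ex 328/em 393 nm) gave % inhibition versus no-compound control, duplicates, IC50 derived.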

In data set [2] the test system is maximal SAP response to Big-ET. The experiment in a line: In vivo inhibition of maximal SAP response to Big-ET in anesthetized rats after oral administration. Further details: species or system Rats (Sprague-Dawley). The conditions noted are these: oral by gavage, 100 μmol/kg, 1 h before Big-ET challenge; mean ± standard error; negative = inhibition. How it is done:
Rats (Sprague-Dawley, CRLD=Charles River) were anaesthetised with 1 ml/kg Rompun/Ketavet 1:1. A pressure transducer (Statham) was inserted into the carotid artery to measure blood pressure.
For oral testing, the substances (or vehicle) were given by gavage at doses of 100 μmol/kg each, 1 h before the Big-ET challenge, and blood pressure and heart rate were monitored as described above.
The inhibition of maximal SAP response to Big-ET in anesthetized rats following oral administration of the test substances of Formula I is set forth in the following Table 3c: […]
Data given in table 3c as negative values indicate an inhibitory effect. Values are means from 3-6 independent series of experiments ±standard error.

A short description of data set [3]: Plasma protein binding, equilibrium dialysis, rat plasma. Type of data set: in vitro ADME. Particulars: rat plasma (10% for routine testing), 37° C., pH 7.4, 10% plasma (100% for low binders), read-out: % bound (rat plasma) (converted). How it is done: (§1) Plasma protein binding of the test substances of Formula I was measured using a validated equilibrium dialysis method. The dialysis cells consisted of two halves separated by a semi-permeable membrane slightly tensioned in between. […] Before being used, the membranes were re-hydrated by soaking in water followed by the dialysis buffer. Plasma (10% for routine testing, and 100% for compounds found to have a low protein binding) was heated to 37° C. and adjusted to pH 7.4 before use. 5 μM test compound solutions (final dimethylsulfoxide concentration 0.5%) were prepared in isotonic phosphate buffer containing rat or human plasma. The plasma-containing solution was on one side of the membrane, and the plasma-free on the other. Incubations were performed overnight (10% plasma assay), or for 2 hours (100% plasma assay) in triplicate. The cells were mounted in a drive unit that rotated the cells and ensured a uniform equilibrium was obtained. The equilibrium was temperature controlled by the drive unit being immersed in a water bath at 37° C. At the end of the equilibration time, the cells were emptied. The solutions for each batch of compounds were combined into two groups (plasma-free and plasma-containing) then cassette analysed by LC-MS/MS using two sets of calibration standards for plasma-free (7 points) and plasma-containing solutions (6 points). The percentage of protein bound compound was calculated as follows: [formula] PC=sample concentration in protein containing side; PF=sample concentration in protein free side;
Background: In equilibrium dialysis free small molecules cross a membrane that holds back macromolecules.

A short description of data set [4]: Plasma protein binding, equilibrium dialysis, human plasma. Type of data set: in vitro ADME. The conditions noted are these: human plasma (10% for routine testing), 37° C., pH 7.4, 10% plasma (100% for low binders), read-out: % bound (human plasma) (converted). How it is done:
as §1

Data set [5] deals with T2, His6-tagged hSEP ectodomain (Homo sapiens, UniProt Q495T6).
T2 construct: His6-tagged hSEP ectodomain; His6; purchased Innogenetics, Ghent, Belgium
T2 sequence (Q495T6 49-779 limits assumed): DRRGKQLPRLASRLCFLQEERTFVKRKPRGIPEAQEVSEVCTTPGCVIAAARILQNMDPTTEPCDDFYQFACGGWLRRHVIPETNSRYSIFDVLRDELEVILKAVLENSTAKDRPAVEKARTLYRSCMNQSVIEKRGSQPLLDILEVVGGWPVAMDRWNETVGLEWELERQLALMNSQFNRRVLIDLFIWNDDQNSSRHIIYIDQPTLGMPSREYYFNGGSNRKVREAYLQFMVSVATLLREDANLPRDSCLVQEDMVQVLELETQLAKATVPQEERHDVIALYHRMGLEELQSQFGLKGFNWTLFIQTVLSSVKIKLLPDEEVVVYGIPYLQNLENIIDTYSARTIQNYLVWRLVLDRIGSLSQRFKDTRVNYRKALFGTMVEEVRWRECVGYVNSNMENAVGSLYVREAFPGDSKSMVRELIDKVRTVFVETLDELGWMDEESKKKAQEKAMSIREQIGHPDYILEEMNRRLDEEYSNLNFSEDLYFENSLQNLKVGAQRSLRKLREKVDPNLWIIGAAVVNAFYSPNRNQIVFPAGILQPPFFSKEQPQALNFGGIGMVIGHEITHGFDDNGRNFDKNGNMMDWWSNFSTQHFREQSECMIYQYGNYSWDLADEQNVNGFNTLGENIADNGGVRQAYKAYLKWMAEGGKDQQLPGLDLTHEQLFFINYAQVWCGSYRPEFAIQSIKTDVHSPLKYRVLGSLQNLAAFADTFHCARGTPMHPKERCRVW
As to the kind of experiment: In vitro investigation of the hSEP-inhibitory action (fluorescence-quenched Big-ET-1 analogue, HPLC). Format: biochemical. In outline: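 Performed as for the NEP assay, with HPLC analysis and 10 nM phosphoramidon as the standard inhibitor. IC50 is the compound concentration blocking 50% of hSEP enzymatic activity.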

For data set [6], the target named is T3, hSEP (sol hu)(his)6; His6-tagged hSEP ectodomain (Homo sapiens, UniProt Q495T6).
T3 construct: His6-tagged hSEP ectodomain; His6; purchased Innogenetics, Ghent, Belgium
T3 sequence (Q495T6 49-779 limits assumed): T2 sequence (Q495T6 49-779 limits assumed)
As to the kind of experiment: Enzymatic breakdown of CNP and VIP by hSEP and its inhibition, in vitro, HPLC. Format: biochemical. The conditions noted are these: no inhibitor, 37° C. The protocol:
The inhibition of the enzymatic breakdown of CNP and VIP by the compounds used according to the invention was measured in an enzymatic in vitro assay according to the following protocol:
All test compounds were dissolved in DMSO at 10 mM and further diluted with assay buffer.
80 μl of assay buffer, 10 μl of enzyme working solution (NEP or hSEP) and 10 μl of peptide stock solution (VIP or CNP) were mixed in an Eppendorf vial and incubated for 120 min. at 37° C. The enzymatic reaction was subsequently terminated by heating to 95° C. for 5 min. After centrifugation (Heraeus Biofuge B, 3 min) the supernatant was subjected to HPLC.
70 μl of assay buffer, 10 μl of enzyme working solution (NEP or hSEP) and 10 μl of a test compound solution were mixed in an Eppendorf vial and preincubated at 37° C. for 15 minutes. Then, 10 μl of peptide stock solution (VIP or CNP) was added and the reaction mixture was incubated at 37° C. for 60 min. to allow enzymatic hydrolysis. The enzymatic reaction was subsequently terminated by heating to 95° C. for 5 min. After centrifugation (Heraeus Biofuge B, 3 min) the supernatant was subjected to HPLC. In order to separate the remaining substrate from the cleavage products, a reversed phase HPLC technique with a CC 125/4 Nucleosil 300/5 C18 RP column and a CC 8/4 Nucleosil 100/5 C18 precolumn (Macherey-Nagel, Düren, Germany) was used. 60 μl of the reaction samples were injected into the HPLC and the column was eluted at a flow rate of 1 ml/min with the following gradient:
All peptides were detected by absorbance at 214 nm (UV spectroscopy). The percentage (=%) of hydrolysis was calculated on the basis of the peak area of the undegraded peptide for an enzyme containing sample Y in correlation to a sample containing the same concentration of peptide without enzyme (blank) by the following equation: % hydrolysis=100*(blank−Y)
Basis of the calculation of % inhibition is the peak area of the undegraded peptide (VIP or CNP) for an inhibitor containing sample X in comparison to samples containing only peptide (blank) or peptide and enzyme without inhibitor (control) according to the following equation: % inhib=100*(X−control)/(blank−control)
All samples were run in duplicate and mean values were used. A solvent control (0.1% DMSO) was added to each assay run. CNP and VIP were cleaved by NEP and hSEP in vitro.

T1 sequence (P08473 52-750 limits assumed): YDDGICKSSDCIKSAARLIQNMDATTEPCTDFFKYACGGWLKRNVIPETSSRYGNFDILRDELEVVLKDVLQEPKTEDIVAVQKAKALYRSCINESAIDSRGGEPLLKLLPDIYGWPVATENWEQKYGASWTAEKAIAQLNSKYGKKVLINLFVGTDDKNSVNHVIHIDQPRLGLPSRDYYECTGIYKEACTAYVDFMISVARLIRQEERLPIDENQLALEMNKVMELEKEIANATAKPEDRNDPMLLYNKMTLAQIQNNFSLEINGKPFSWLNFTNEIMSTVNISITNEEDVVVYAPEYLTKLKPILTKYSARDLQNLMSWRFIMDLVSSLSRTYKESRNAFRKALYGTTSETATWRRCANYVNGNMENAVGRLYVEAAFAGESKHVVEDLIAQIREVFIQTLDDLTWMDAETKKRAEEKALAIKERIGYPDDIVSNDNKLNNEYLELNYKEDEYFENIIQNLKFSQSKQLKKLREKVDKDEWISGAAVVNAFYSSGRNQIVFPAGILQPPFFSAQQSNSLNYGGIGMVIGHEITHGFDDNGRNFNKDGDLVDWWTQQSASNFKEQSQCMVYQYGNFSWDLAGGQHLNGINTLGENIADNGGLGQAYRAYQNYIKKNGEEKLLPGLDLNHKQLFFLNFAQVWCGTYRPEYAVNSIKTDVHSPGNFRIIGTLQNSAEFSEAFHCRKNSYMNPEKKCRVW

`CCN(CCCN)C(=O)CC(CC1(C(=O)NC2CCc3ccccc3N(CC(=O)O)C2=O)CCCC1)C(=O)O` (stereo not shown) [Example 80, 4-[(3-aminopropyl)(ethyl)amino]-2-{[1-({[1-(carboxymethyl)-2-oxo-2,3,4,5-tetrahydro-1H-1-benzazepin-3-yl]amino}carbonyl)cyclopentyl]methyl}-4-oxobutanoic acid]: the IC50 (in general, the midpoint of a concentration-inhibition curve) in data set [1] is 16 nM; in data set [5], 3 nM. Further, the “% substance-related inhibition of the maximum Big-ET effect on SAP vs. control” value in data set [2] was −43 ± 5%. For the same compound, the fraction unbound at 5 μM in data set [3] is 0.73; in data set [4], 0.66.

Turning to “CNP: c-type natriuretic peptide, CNP (32-53), substrate of NEP and hSEP; supplier Bachem [reference compound]”, in data set [6], the “breakdown of CNP by hSEP, degradation at t = 2 h” value turned out to be 46%.

For the compound “VIP: vasoactive intestinal peptide, substrate of NEP and hSEP; supplier Bachem [reference compound]”, the “breakdown of VIP by hSEP, degradation at t = 2 h” value in data set [6] is listed as 36%.
